According to ChEMBL document CHEMBL6120941, “Discovery of SIRT1-Activating Hydrogen Sulfide Donating Derivatives for Efficient Resistant of Myocardial Ischemic Injury” (J Med Chem, 2024):
The source made the active and inactive calls. The calls are words filed in the database; no cut-off is given here.

Tests used:
[1] = test system: H9c2; assay: Cardioprotective activity against CoCl2-induced cellular hypoxia injury in rat H9c2 cells assessed as increase in cell viability at 30 uM incubated for 24 hrs by CCK-8 assay; assay type: functional, cell-based
[2] = test system: H9c2; assay: Cardioprotective activity against CoCl2-induced cellular hypoxia injury in rat H9c2 cells assessed as cell viability at 0.625 uM incubated for 24 hrs by CCK-8 assay (reference value: 51.80 +/- 2.58 %); assay type: functional; details: read-out: Activity
[3] = test system: H9c2; assay: Cardioprotective activity against CoCl2-induced cellular hypoxia injury in rat H9c2 cells assessed as cell viability at 1.25 uM incubated for 24 hrs by CCK-8 assay (reference value: 51.80 +/- 2.58 %); assay type: functional; details: read-out: Activity
[4] = test system: H9c2; assay: Cardioprotective activity against CoCl2-induced cellular hypoxia injury in rat H9c2 cells assessed as cell viability at 2.5 uM incubated for 24 hrs by CCK-8 assay (reference value: 51.80 +/- 2.58 %); assay type: functional; details: read-out: Activity
[5] = test system: H9c2; assay: Cardioprotective activity against CoCl2-induced cellular hypoxia injury in rat H9c2 cells assessed as cell viability at 5 uM incubated for 24 hrs by CCK-8 assay (reference value: 51.80 +/- 2.58 %); assay type: functional; details: read-out: Activity
[6] = test system: H9c2; assay: Cardioprotective activity against CoCl2-induced cellular hypoxia injury in rat H9c2 cells assessed as cell viability at 10 uM incubated for 24 hrs by CCK-8 assay (reference value: 51.80 +/- 2.58 %); assay type: functional; details: read-out: Activity

C=CCSSCCC(=O)O[C@H]1CC[C@]2(C)[C@H]3C[C@@H](O)[C@@H]4[C@@H]([C@@](C)(O)CCC=C(C)C)CC[C@@]4(C)[C@]3(C)C[C@H](O)[C@H]2C1(C)C
Activity [1]: inactive
viability at 0.625 µM [2]: 49%
viability at 1.25 µM [3]: 58.4%
viability at 2.5 µM [4]: 64.4%
viability at 5 µM [5]: 63.1%
viability at 10 µM [6]: 65.7%

CC(C)(O)[C@@H]1CC[C@@](C)([C@H]2CC[C@]3(C)[C@@H]2[C@H](O)C[C@@H]2[C@@]4(C)CC[C@H](OC(=O)c5ccc(N=C=S)cc5)C(C)(C)[C@@H]4CC[C@]23C)O1
Activity [1]: inactive
viability at 0.625 µM [2]: 62.2%
viability at 1.25 µM [3]: 62.2%
viability at 2.5 µM [4]: 67.1%
viability at 5 µM [5]: 70%
viability at 10 µM [6]: 77.1%

C=CCSSCCC(=O)O
Activity [1]: inactive
viability at 0.625 µM [2]: 51.7%
viability at 1.25 µM [3]: 57.5%
viability at 2.5 µM [4]: 68.4%
viability at 5 µM [5]: 71%
viability at 10 µM [6]: 80.3%

O=C(O)CCC(=O)Oc1ccc(-c2cc(=S)ss2)cc1
Activity [1]: inactive
viability at 0.625 µM [2]: 66.4%
viability at 1.25 µM [3]: 67.4%
viability at 2.5 µM [4]: 74.3%
viability at 5 µM [5]: 77.6%
viability at 10 µM [6]: 80.3%

CC(C)(O)[C@H]1CC[C@@](C)([C@H]2CC[C@]3(C)[C@@H]2[C@H](O)C[C@@H]2[C@@]4(C)CC[C@H](O)C(C)(C)[C@@H]4CC[C@]23C)O1
Activity [1]: inactive
viability at 0.625 µM [2]: 68.7%
viability at 1.25 µM [3]: 66.4%
viability at 2.5 µM [4]: 65.4%
viability at 5 µM [5]: 66.9%
viability at 10 µM [6]: 75.5%

CC(C)(O)[C@H]1CC[C@@](C)([C@H]2CC[C@]3(C)[C@@H]2[C@H](O)C[C@@H]2[C@@]4(C)CC[C@H](OC(=O)CCC(=O)Oc5ccc(-c6cc(=S)ss6)cc5)C(C)(C)[C@@H]4[C@@H](O)C[C@]23C)O1
Activity [1]: inactive
viability at 0.625 µM [2]: 67.3%
viability at 1.25 µM [3]: 66.2%
viability at 2.5 µM [4]: 68.4%
viability at 5 µM [5]: 68.1%
viability at 10 µM [6]: 68.3%

CC(C)=CCC[C@](C)(O)[C@H]1CC[C@]2(C)[C@@H]1[C@H](O)C[C@@H]1[C@@]3(C)CC[C@H](O)C(C)(C)[C@@H]3[C@@H](O)C[C@]12C
Activity [1]: inactive
viability at 0.625 µM [2]: 66%
viability at 1.25 µM [3]: 66.8%
viability at 2.5 µM [4]: 67.3%
viability at 5 µM [5]: 71.4%
viability at 10 µM [6]: 71.6%

CC(C)=CCC[C@](C)(O)[C@H]1CC[C@]2(C)[C@@H]1[C@H](O)C[C@@H]1[C@@]3(C)CC[C@H](O)C(C)(C)[C@@H]3CC[C@]12C
Activity [1]: inactive
viability at 0.625 µM [2]: 52.5%
viability at 1.25 µM [3]: 63%
viability at 2.5 µM [4]: 67.5%
viability at 5 µM [5]: 67.5%
viability at 10 µM [6]: 68.8%

CC(C)(O)[C@H]1CC[C@@](C)([C@H]2CC[C@]3(C)[C@@H]2[C@H](O)C[C@@H]2[C@@]4(C)CC[C@H](OC(=O)CCC(=O)Oc5ccc(-c6cc(=S)ss6)cc5)C(C)(C)[C@@H]4CC[C@]23C)O1
Activity [1]: inactive
viability at 0.625 µM [2]: 65.1%
viability at 1.25 µM [3]: 66.8%
viability at 2.5 µM [4]: 67.5%
viability at 5 µM [5]: 69.5%
viability at 10 µM [6]: 72.5%

CC(C)(O)[C@H]1CC[C@@](C)([C@H]2CC[C@]3(C)[C@@H]2[C@H](O)C[C@@H]2[C@@]4(C)CC[C@H](OC(=O)c5ccc(N=C=S)cc5)C(C)(C)[C@@H]4[C@@H](O)C[C@]23C)O1
Activity [1]: inactive
viability at 0.625 µM [2]: 52.5%
viability at 1.25 µM [3]: 59.6%
viability at 2.5 µM [4]: 57.1%
viability at 5 µM [5]: 58.6%
viability at 10 µM [6]: 58.5%

C=CCSSCCC(=O)O[C@H]1CC[C@]2(C)[C@H]3C[C@@H](O)[C@@H]4[C@@H]([C@]5(C)CC[C@H](C(C)(C)O)O5)CC[C@@]4(C)[C@]3(C)C[C@H](O)[C@H]2C1(C)C
Activity [1]: inactive
viability at 0.625 µM [2]: 68.1%
viability at 1.25 µM [3]: 64.5%
viability at 2.5 µM [4]: 62.9%
viability at 5 µM [5]: 66.5%
viability at 10 µM [6]: 69.7%

C=CCSSCCC(=O)O[C@H]1CC[C@]2(C)[C@H]3C[C@@H](O)[C@@H]4[C@@H]([C@]5(C)CC[C@H](C(C)(C)O)O5)CC[C@@]4(C)[C@]3(C)CC[C@H]2C1(C)C
Activity [1]: inactive
viability at 0.625 µM [2]: 65.7%
viability at 1.25 µM [3]: 72.3%
viability at 2.5 µM [4]: 73.6%
viability at 5 µM [5]: 76.9%
viability at 10 µM [6]: 74.2%

CC(C)(O)[C@@H]1CC[C@@](C)([C@H]2CC[C@]3(C)[C@@H]2[C@H](O)C[C@@H]2[C@@]4(C)CC[C@H](OC(=O)CCC(=O)Oc5ccc(-c6cc(=S)ss6)cc5)C(C)(C)[C@@H]4[C@@H](O)C[C@]23C)O1
Activity [1]: inactive
viability at 0.625 µM [2]: 68.4%
viability at 1.25 µM [3]: 73.6%
viability at 2.5 µM [4]: 76.9%
viability at 5 µM [5]: 77.2%
viability at 10 µM [6]: 75.2%

O=C(Nc1ccccc1-c1cn2c(CN3CCNCC3)csc2n1)c1cnc2ccccc2n1
viability at 0.625 µM [2]: 71.7%
viability at 1.25 µM [3]: 73.3%
viability at 2.5 µM [4]: 80.6%
viability at 5 µM [5]: 83.3%
viability at 10 µM [6]: 88.4%

C=CCSSCCC(=O)O[C@H]1CC[C@]2(C)[C@H]3C[C@@H](O)[C@@H]4[C@@H]([C@@](C)(O)CCC=C(C)C)CC[C@@]4(C)[C@]3(C)CC[C@H]2C1(C)C
Activity [1]: inactive
viability at 0.625 µM [2]: 46%
viability at 1.25 µM [3]: 50.8%
viability at 2.5 µM [4]: 42.5%
viability at 5 µM [5]: 60.6%
viability at 10 µM [6]: 62.7%

O=C(O)c1ccc(N=C=S)cc1
Activity [1]: inactive
viability at 0.625 µM [2]: 51.1%
viability at 1.25 µM [3]: 53.7%
viability at 2.5 µM [4]: 59.3%
viability at 5 µM [5]: 59.5%
viability at 10 µM [6]: 63.5%

CC(C)(O)[C@@H]1CC[C@@](C)([C@H]2CC[C@]3(C)[C@@H]2[C@H](O)C[C@@H]2[C@@]4(C)CC[C@H](OC(=O)CCC(=O)Oc5ccc(-c6cc(=S)ss6)cc5)C(C)(C)[C@@H]4CC[C@]23C)O1
Activity [1]: inactive
viability at 0.625 µM [2]: 68.4%
viability at 1.25 µM [3]: 71.4%
viability at 2.5 µM [4]: 79.6%
viability at 5 µM [5]: 80%
viability at 10 µM [6]: 82.2%

CC(C)(O)[C@H]1CC[C@@](C)([C@H]2CC[C@]3(C)[C@@H]2[C@H](O)C[C@@H]2[C@@]4(C)CC[C@H](OC(=O)CCC(=O)Oc5ccc(-c6nc(=O)ss6)cc5)C(C)(C)[C@@H]4[C@@H](O)C[C@]23C)O1
Activity [1]: inactive
viability at 0.625 µM [2]: 65.7%
viability at 1.25 µM [3]: 72.5%
viability at 2.5 µM [4]: 76%
viability at 5 µM [5]: 77.3%
viability at 10 µM [6]: 81.5%

CC(C)(O)[C@H]1CC[C@@](C)([C@H]2CC[C@]3(C)[C@@H]2[C@H](O)C[C@@H]2[C@@]4(C)CC[C@H](OC(=O)c5ccc(N=C=S)cc5)C(C)(C)[C@@H]4CC[C@]23C)O1
Activity [1]: inactive
viability at 0.625 µM [2]: 59.9%
viability at 1.25 µM [3]: 61.6%
viability at 2.5 µM [4]: 67.3%
viability at 5 µM [5]: 68.3%
viability at 10 µM [6]: 72.9%

CC(C)(O)[C@@H]1CC[C@@](C)([C@H]2CC[C@]3(C)[C@@H]2[C@H](O)C[C@@H]2[C@@]4(C)CC[C@H](O)C(C)(C)[C@@H]4[C@@H](O)C[C@]23C)O1 [PROTOPANAXATRIOL OXIDE II]
Activity [1]: inactive
viability at 0.625 µM [2]: 52%
viability at 1.25 µM [3]: 54%
viability at 2.5 µM [4]: 56.7%
viability at 5 µM [5]: 69.6%
viability at 10 µM [6]: 73.4%

O=C(O)CCC(=O)Oc1ccc(-c2nc(=O)ss2)cc1
Activity [1]: inactive
viability at 0.625 µM [2]: 52.4%
viability at 1.25 µM [3]: 55.1%
viability at 2.5 µM [4]: 55.9%
viability at 5 µM [5]: 57%
viability at 10 µM [6]: 57.2%
